Assay results as given in patent US6380181B1, “Synthetic catechol derivatives, method for production and use thereof” (priority 1996, dated 2002).
≈ marks a conversion by molar mass, not a printed value. Like-named read-outs stand apart in the source and are kept apart here.

Experiments:
Format in all cases: cell-based
[1] = test system: Pseudomonas aeruginosa K 407; settings: Pseudomonas aeruginosa K407
From the text: (§1) In the indicator mutants, the synthesis of the respective siderophores, e.g. pyoverdin, pyochelin, enterobactin, aerobactin or yersiniabactin, or the biosynthesis of aromatic compounds, is blocked, or there is a lack of receptors for enterobactin, pyochelin or pyoverdin and for other important components for the bacterial transport of iron (e.g. the membrane proteins Cir, Fiu, FepA and TonB). Under conditions where there is a lack of iron, these mutants therefore cannot grow or can only grow to a very slight extent. In particular, the following indicator mutants were used: Pseudomonas aeruginosa PAO 6609, K 407, 690; E. coli AB 2847, Salmonella typhimurium enb-7, TA 270; Klebsiella pneumoniae KN 4401; Yersinia enterocolitica WAH; Proteus mirabilis 12 (wild); Proteus vulgaris 718 (wild) and Morganella morganii SBK3 (wild). […] The controls used were ferrioxamine E for the Pseudomonas strains, ferrioxamine G and enterobactin for the Salmonella strains, ferrichrome for the E. coli, Klebsiella and Y. enterocol. strains, and 3,4-dihydroxybenzylidene-2,4,6-trimethylaniline for Morganella morganii (see the above literature reference by R. Reissbrodt et al.).
(§2) The annotations + and (+) relate to non-specific promotion of growth.

[2] = test system: Salmonella typhimurium TA 2700
From the text: as §1, §2

[3] = test system: Pseudomonas aeruginosa 690
From the text: as §1, §2

[4] = test system: Morganella morganii SBK3 (wild); settings: M. morg. SBK 3
From the text: as §1, §2

[5] = test system: E. coli AB 2847
From the text: as §1, §2

[6] = test system: Pseudomonas aeruginosa PAO 6609
From the text: as §1, §2

[7] = test system: Proteus mirabilis 12 (wild); settings: Proteus mir. 12
From the text: as §1, §2

[8] = test system: Klebsiella pneumoniae KN 4401; settings: Klebsiella KN 4401
From the text: as §1, §2

[9] = test system: Proteus vulgaris 718 (wild); settings: Proteus vul. 718
From the text: as §1, §2

[10] = test system: Salmonella typhimurium enb-7
From the text: as §1, §2

[11] = test system: Pseudomonas aeruginosa KW 799 WT (wild type); assay: Agar diffusion test; settings: concentration 100 μg/ml, P. aeruginosa KW799/WT
[12] = test system: Pseudomonas aeruginosa KW 799/61; assay: Microdilution test (MIC)
Protocol: (§3) The minimum inhibiting concentrations (MICs) were determined for the following bacterial strains: Pseudomonas aeruginosa NCTC 10701, NCTC 10662, SG 137, ATCC 27853, KW 799 WT and KW 799/61, E. coli DCO, DC2 and ATCC 25922, Serratia marcescens SG 621; Salmonella gallinarum ATCC 9184, Klebsiella pneumoniae ATCC 10031 and SG 117.
(§4) With the test germs KW 799/WT and /61 of Pseudomonas and DCO and DC2 of E. coli, the effect of improved penetration capacity on the efficacy of the substances was investigated.

[13] = test system: Pseudomonas aeruginosa KW 799 WT; assay: Microdilution test (MIC); settings: P. aeruginosa KW 799/WT
Protocol: as §3, §4

[14] = test system: Pseudomonas aeruginosa NCTC 10662; assay: Microdilution test (MIC); settings: P. aeruginosa NCTC 10662
Protocol: as §3

[15] = test system: Klebsiella pneumoniae ATCC 10031; assay: Microdilution test (MIC)
Protocol: as §3

[16] = test system: Pseudomonas aeruginosa SG 137; assay: Microdilution test (MIC); settings: P. aeruginosa SG 137
Protocol: as §3

[17] = test system: Serratia marcescens SG 621; assay: Microdilution test (MIC)
Protocol: as §3

[18] = test system: E. coli ATCC 25922; assay: Microdilution test (MIC)
Protocol: as §3

[19] = test system: E. coli DC2 (penetration mutant); settings: concentration 100 μg/ml
[20] = test system: Pseudomonas aeruginosa SG 137 (carbenicillin-resistant); assay: Agar diffusion test; settings: concentration 100 μg/ml, P. aeruginosa SG 137
[21] = test system: Pseudomonas aeruginosa KW 799/61 (penetration mutant); settings: P. aeruginosa KW799/61
[22] = test system: E. coli DC2; assay: microbe, parasite or virus in culture
Protocol: as §3, §4

[23] = test system: E. coli DC0 (wild type); assay: Agar diffusion test; settings: concentration 100 μg/ml
[24] = test system: Stenotrophomonas maltophilia GN 12873; assay: Microdilution test (MIC)
[25] = test system: Stenotrophomonas maltophilia GN 12873; assay: Agar diffusion test; settings: concentration 100 μg/ml
[26] = test system: Salmonella gallinarum ATCC 9184; settings: concentration 100 μg/ml, Salmonella galinarum ATCC 9184
[27] = test system: Klebsiella pneumoniae ATCC 10031; assay: Agar diffusion test; settings: concentration 100 μg/ml
[28] = test system: Pseudomonas aeruginosa ATCC 27853; assay: Microdilution test (MIC); settings: P. aeruginosa ATCC 27853
Protocol: as §3

[29] = test system: Klebsiella pneumoniae SG 117; assay: Agar diffusion test; settings: concentration 100 μg/ml
[30] = test system: Pseudomonas aeruginosa ATCC 27853 (wild type); assay: Agar diffusion test; settings: concentration 100 μg/ml; P. aeruginosa ATCC 27853

| SMILES | inhibition spot diameter in the agar diffusion test [11] [mm] | MIC values, microdilution test [14] [µg/mL] | MIC values, microdilution test [16] [µg/mL] | MIC values, microdilution test [18] [µg/mL] | inhibition spot diameter in the agar diffusion test [19] [mm] | inhibition spot diameter in the agar diffusion test [20] [mm] | inhibition spot diameter in the agar diffusion test ([21]; concentration 100 μg/ml) [mm] | inhibition spot diameter in the agar diffusion test [23] [mm] | MIC values, microdilution test [24] [µg/mL] | inhibition spot diameter in the agar diffusion test [25] [mm] | inhibition spot diameter in the agar diffusion test [26] [mm] | inhibition spot diameter in the agar diffusion test [27] [mm] | MIC values, microdilution test [28] [µg/mL] | inhibition spot diameter in the agar diffusion test [29] [mm] | inhibition spot diameter in the agar diffusion test [30] [mm] | further results |
| --- | --- | --- | --- | --- | --- | --- | --- | --- | --- | --- | --- | --- | --- | --- | --- | --- |
| COC(=O)Oc1ccc(C(=O)NN=C(C(=O)O)c2ccccc2)cc1OC(=O)OC [Substance 12, {[3,4-di(Methoxycarbonyloxy)-benzoyl]-hydrazono}-phenylacetic Acid] | – | – | – | – | – | – | – | – | – | – | – | – | – | – | – | Growth areas of siderophore indicator strains (diameter) [1]: 0 mm; Growth areas of siderophore indicator strains (diameter) [2]: 0 mm; Growth areas of siderophore indicator strains (diameter) [3]: 12 mm; Growth areas of siderophore indicator strains (diameter) [4]: 15 mm; Growth areas of siderophore indicator strains (diameter) [5]: 14 mm; Growth areas of siderophore indicator strains (diameter) [6]: 14 mm; Growth areas of siderophore indicator strains (diameter) [7]: 17 mm; Growth areas of siderophore indicator strains (diameter) [8]: 30 mm; Growth areas of siderophore indicator strains (diameter) [9]: 20 mm; Growth areas of siderophore indicator strains (diameter) [10]: 0 mm |
| COC(=O)Oc1cccc(C(=O)N2COC[C@H]2C(=O)N[C@@H](C(=O)N[C@@H]2C(=O)N3[C@@H]2SC(C)(C)[C@@H]3C(=O)O)c2ccccc2)c1OC(=O)OC [Substance 30, (S)-N-[3-(2,3-di-(Methoxycarbonyloxy)-benzoyl]-oxazolidin-4-oyl]-ampicillin] | 27 | 6.25 (≈ 8.92 µM) | 0.4 (≈ 0.571 µM) | 6.25 (≈ 8.92 µM) | 31 | 22 | 33 | 25 | 3.12 (≈ 4.45 µM) | 19 | 29 | – | – | – | – | MIC values, microdilution test [12]: 0.2 µg/mL (≈ 0.285 µM); MIC values, microdilution test [13]: 0.78 µg/mL (≈ 1.11 µM); MIC values, microdilution test [15]: 6.25 µg/mL (≈ 8.92 µM); MIC values, microdilution test [17]: 50 µg/mL (≈ 71.4 µM); MIC values, microdilution test [22]: 0.4 µg/mL (≈ 0.571 µM) |
| CC(=O)Oc1cccc(C(=O)Nc2cc(NC(=O)c3cccc(OC(C)=O)c3OC(C)=O)cc(C(=O)N[C@@H](C(=O)N[C@@H]3C(=O)N4[C@@H]3SC(C)(C)[C@@H]4C(=O)O)c3ccccc3)c2)c1OC(C)=O [Substance 36, N-[3,5-bis-(2,3-diacetoxy-benzoylamino)-benzoyl]-ampicillin] | 25 | 6.25 (≈ 6.76 µM) | 0.4 (≈ 0.433 µM) | 25 (≈ 27.1 µM) | 19 | 25 | 29 | 13 | 1.56 (≈ 1.69 µM) | 24 | 23 | 17 | 3.12 (≈ 3.38 µM) | 16 | 19 | – |
| CC(=O)Oc1cccc(C(=O)NCCCC[C@H](NC(=O)c2cccc(OC(C)=O)c2OC(C)=O)C(=O)N[C@@H](C(=O)N[C@@H]2C(=O)N3[C@@H]2SC(C)(C)[C@@H]3C(=O)O)c2ccccc2)c1OC(C)=O [Substance Na-31, N-[L-2,6-bis-(2,3-diacetoxybenzoylamino)-hexanoyl]-ampicillin] | – | – | – | – | – | – | – | – | – | – | – | 21 | 0.78 (≈ 0.85 µM) | 26 | 24 | inhibition spot diameter in the agar diffusion test ([11]; listed as Na-31): 31 mm; MIC values, microdilution test ([14]; listed as Na-31): 0.78 µg/mL (≈ 0.85 µM); MIC values, microdilution test ([18]; listed as Na-31): 0.2 µg/mL (≈ 0.218 µM); inhibition spot diameter in the agar diffusion test ([19]; listed as Na-31): 38 mm; inhibition spot diameter in the agar diffusion test ([20]; listed as Na-31): 31 mm; inhibition spot diameter in the agar diffusion test ([21]; [ ] at 50 μg/ml): [38] mm; inhibition spot diameter in the agar diffusion test ([23]; listed as Na-31): 28 mm; MIC values, microdilution test ([24]; listed as Na-31): 6.25 µg/mL (≈ 6.81 µM); inhibition spot diameter in the agar diffusion test ([25]; listed as Na-31): 29 mm; inhibition spot diameter in the agar diffusion test ([26]; listed as Na-31): 34 mm |
